Consider 13 compounds from ChEMBL document CHEMBL1201862, “PubChem BioAssay data set” (2004).

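Five concentrations, 48 hours, 96-well plates. GI50 marks 50% less growth.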 Calls of active or inactive are those of the source. Rule as the data show it: active = GI50 up to about 1.1 µM and inactive = higher.

Holding throughout (assay): inhibition of tumour cell growth, NCI panel, 48 h
Test [1] concerns EKVX.
Test [2] relates to HCC 2998.
Test [3] concerns HCT-15.
Test [4] concerns HT-29.
Test [5] deals with K562.
Test [6] relates to M14.
Test [7] has as its system NCI-H460.
The subject of test [8] is SNB-78.
The test system of test [9] is SR.
The subject of test [10] is SW-620.
In test [11] the test system is U-251.
For test [12], the system named is HOP-92.
Test [13] relates to SF-295.
Test [14] deals with SK-MEL-2.
Test [15] relates to A498.
In test [16] the test system is DU-145.
In test [17] the test system is MCF7.
Test [18] deals with NCI/ADR-RES.
Test [19] relates to PC-3.
Test [20] concerns RXF 393.

For the compound `COc1cccc(-c2cc(O)c3cc(OC)c(OC)cc3n2)c1`, the GI50 in test [1] is 97.7 µM (inactive); in [2], 87.1 µM (inactive); in test [3] it was 52.6 µM; in [4], 20.1 µM (inactive); in test [5], 40.3 µM (inactive); in test [6] it was 37.9 µM (inactive). Further, the GI50 in test [7] was 30.3 µM (inactive); in test [8] it was 29.9 µM (inactive); in [9] it was 56.1 µM (inactive); in test [10], 32 µM (inactive); in [11] it was 60.5 µM (inactive).
For `NC(=O)NC1C(C(N)=O)N(Cc2ccccc2)C(=O)N1Cc1ccccc1` (centres undefined), the GI50 in test [1] is > 100 µM (inactive); in test [2], > 100 µM (inactive); in [3], above 100 µM; in test [12] it was > 100 µM (inactive); in [4], > 100 µM (inactive); in test [5], > 100 µM (inactive). For the same compound, the GI50 in test [6], in [7], in [13], in test [14], in test [8] and in test [9] was > 100 µM (inactive) each time. Further, the GI50 in [10] and in test [11] was > 100 µM (inactive) in each case.
With `CCO/C=N/NC(=O)CSc1nc2ccc(I)cc2c(=O)n1Cc1ccccc1`, the GI50 in [15] was 84.5 µM (inactive); in [16] it was > 100 µM (inactive); in test [1] it was 22.9 µM (inactive); in test [2], 43.5 µM (inactive); in test [3], above 100 µM; in [12], 83.6 µM (inactive). The GI50 in test [4] was 40.2 µM (inactive); in test [5], 11 µM (inactive); in [6], 70.3 µM (inactive); in [17] it was 33.6 µM (inactive); in test [7] it was 28.8 µM (inactive); in test [18], > 100 µM (inactive). Further, the GI50 in test [19] was 43.9 µM (inactive); in test [20], 34.6 µM (inactive); in [13], 56.4 µM (inactive); in test [14], 21.7 µM (inactive); in test [9] it was 33.7 µM (inactive); in test [10], 46.2 µM (inactive). Also, in [11], the GI50 was 35.9 µM (inactive).
For the compound `CC1=C(C(=O)NCc2ccccc2)C(c2ccc([N+](=O)[O-])cc2)C(C(=O)NCc2ccccc2)=C(C)N1`, the GI50 in test [15] is 86.1 µM (inactive); in [1], > 100 µM (inactive); in test [2] it was 39.8 µM (inactive); in test [3], 45.4 µM; in test [12], 26.8 µM (inactive); in test [4], 18.1 µM (inactive). Also, the GI50 in test [5] is 31.2 µM (inactive); in test [6], 21.8 µM (inactive); in test [7], 35.1 µM (inactive); in test [20], 31.6 µM (inactive); in test [13], 37.1 µM (inactive); in [14], 30.8 µM (inactive). Moreover, the GI50 was 78.7 µM (inactive) in test [8], 63.7 µM (inactive) in test [10] and 40.3 µM (inactive) in test [11].
Turning to `CC1(C)C2CCC1(C)[C@H](n1c(=O)n([C@@H]3CC4CCC3(C)C4(C)C)c(=O)n([C@@H]3CC4CCC3(C)C4(C)C)c1=O)C2`, the GI50 in test [15] is 88.5 µM (inactive); in [16], 55.7 µM (inactive); in test [1], 30 µM (inactive); in [2] it was 22 µM (inactive); in [3] it was 49.2 µM; in [12] it was 87.7 µM (inactive). Also, the GI50 was 56.8 µM (inactive) in test [4]; 85.9 µM (inactive) in test [5]; > 100 µM (inactive) in [6]; 71.9 µM (inactive) in test [17]; 31.2 µM (inactive) in test [7]; > 100 µM (inactive) in test [18]. Also, the GI50 in [19] was 67.9 µM (inactive); in test [20], 19.8 µM (inactive); in [13] it was 29.6 µM (inactive); in test [14], 22.3 µM (inactive); in [9], 71.4 µM (inactive); in test [10], 98.2 µM (inactive). The GI50 in [11] was 25.3 µM (inactive).
As to `O=C1C(c2ccccc2)=C(c2ccccc2)[C@H](c2ccccc2)[C@]1(Cc1nnn(-c2ccc([N+](=O)[O-])cc2)c1N1CCOCC1)c1ccccc1`, the GI50 is > 37.5 µM (inactive) in test [15]; > 37.5 µM (inactive) in test [1]; > 37.5 µM (inactive) in [2]; above 37.5 µM in [3]; 0.00621 µM (active) in test [12]; > 37.5 µM (inactive) in test [4]. In addition, the GI50 in [5] was > 37.5 µM (inactive); in test [6] it was > 37.5 µM (inactive); in test [7], > 37.5 µM (inactive); in test [20] it was 9.62 µM (inactive); in test [13], 35.6 µM (inactive); in test [8], > 37.5 µM (inactive). The GI50 in test [10] and in [11] was > 37.5 µM (inactive) in each case.
For the compound `COCC(=O)CP(=O)(OC)OC`, the GI50 in [15] was > 100 µM (inactive); in [1], > 100 µM (inactive); in test [3] it was above 100 µM; in test [12] it was > 100 µM (inactive); in [4] it was > 100 µM (inactive); in test [5], > 100 µM (inactive). Further, the GI50 in test [6], in test [7], in test [20], in test [13], in [14] and in test [8] was > 100 µM (inactive) throughout. Besides, the GI50 in test [10] and in test [11] was > 100 µM (inactive) in each case.
For the compound `N#CC(NNC(=O)Cc1ccccc1)c1ccc([N+](=O)[O-])cc1` (centres undefined), the GI50 in test [3] is above 100 µM; in test [12], 55.3 µM (inactive); in test [4] it was > 100 µM (inactive); in test [5], > 100 µM (inactive); in test [6], > 100 µM (inactive); in test [7], > 100 µM (inactive). For the same compound, the GI50 in test [20], in test [13], in [14], in [8], in test [9] and in [10] was > 100 µM (inactive) each time. Besides, the GI50 in [11] is > 100 µM (inactive).
As to `CC(Oc1ccc(OCC2CCCCC2)cc1)C(=O)OCC(=O)c1ccc(-c2ccccc2)cc1` (centres undefined), the GI50 in test [15] was > 100 µM (inactive); in test [2] it was > 100 µM (inactive); in test [3], above 100 µM; in test [4], > 100 µM (inactive); in test [5], > 100 µM (inactive); in [6], > 100 µM (inactive). For the same compound, the GI50 in [7], in test [20], in test [13], in test [14], in test [8] and in [11] was > 100 µM (inactive) in each case.
In the case of `CC(C)C(/C=C/c1ccccc1)=N\NC(=O)N/N=C(/C=C/c1ccccc1)C(C)C`, the GI50 in test [1] was 8.36 µM (inactive); in [2], 16 µM (inactive); in [3], 20.7 µM; in test [12], 20.7 µM (inactive); in test [4], 26.5 µM (inactive); in [5] it was 21.2 µM (inactive). In addition, the GI50 in [6] is 39.4 µM (inactive); in test [7], 14.4 µM (inactive); in test [13], 39.9 µM (inactive); in test [14] it was 19.9 µM (inactive); in test [8], 28.1 µM (inactive); in [9] it was 20.8 µM (inactive). The GI50 in [10] is 37 µM (inactive); in test [11], 32.3 µM (inactive).
As for `CC(C)(C)c1cc(OCc2nn3c(Cc4ccccc4)nnc3s2)c(Cl)cc1OCc1nn2c(Cc3ccccc3)nnc2s1`, the GI50 was 15 µM (inactive) in [15]; 30.5 µM (inactive) in test [16]; 12.9 µM (inactive) in [1]; 53.6 µM (inactive) in test [2]; 19.6 µM in [3]; 16.2 µM (inactive) in [12]. For the same compound, the GI50 in test [4] was 23.3 µM (inactive); in [5], 17.3 µM (inactive); in test [6], 29.7 µM (inactive); in test [17], 22.5 µM (inactive); in test [7], 28.2 µM (inactive); in test [18] it was 39.3 µM (inactive). The GI50 was 20.1 µM (inactive) in test [19]; 17.1 µM (inactive) in test [20]; 12.8 µM (inactive) in test [13]; 30.8 µM (inactive) in test [14]; 39.9 µM (inactive) in [9]; 43.6 µM (inactive) in [10]. The GI50 in test [11] was 21.8 µM (inactive).
With `CC(C)(C)C(=O)O[C@@H]1COC2C(O)COC21` (some centres undefined), the GI50 in test [2], in test [12], in test [4], in [5], in [6] and in [7] was > 100 µM (inactive) each time. The GI50 in test [20], in test [13], in [8], in test [9], in test [10] and in [11] was > 100 µM (inactive) in each case.
`COc1cc2c(cc1OC)[C@]1(O)C(=O)c3ccc4c(c3O[C@@H]1CO2)C[C@H](C(C)(C)O)O4`: the GI50 was 45.8 µM (inactive) in test [15]; 10.3 µM (inactive) in [1]; > 100 µM (inactive) in [2]; 33.6 µM (inactive) in test [12]; > 100 µM (inactive) in test [4]; 17.1 µM (inactive) in test [5]. Further, the GI50 in test [6] is > 100 µM (inactive); in test [7], > 100 µM (inactive); in test [20], 8.3 µM (inactive); in test [14], > 100 µM (inactive); in test [8], > 100 µM (inactive); in test [10], > 100 µM (inactive). Also, the GI50 in test [11] is > 100 µM (inactive).
